The source of these data is US8642011B2 (priority 2006, dated 2014).

Common to all, as to experiment: microbe, parasite or virus in culture
Common to all, as to conditions: Mycobacterium tuberculosis, read-out: minimum inhibitory concentration (MIC)

One test has as its system MT103 (wild type). It counts as cell-based, M. tuberculosis.
The next test has as its system SO2 strain. It counts as cell-based, M. tuberculosis.
Test [1] has as its system M. tuberculosis strains H37Rv. It counts as cell-based.

≈ marks a conversion by molar mass, not a printed value.

In the case of `CC[C@@H](CO)NCCN[C@@H](CC)CO` [Ethambutol], the MIC (with MT103 (wild type); in the test on SO2 strain; in test [1]) was 2 µg/mL (≈ 9.79 µM) in each case.
In the case of `NNC(=O)c1ccncc1` [Isoniazid], the MIC with MT103 (wild type) worked out at 0.5 µg/mL (≈ 3.65 µM); in the test on SO2 strain it was 0.25 µg/mL (≈ 1.82 µM); in test [1], 0.5 µg/mL (≈ 3.65 µM).
For `CO[C@H]1/C=C/O[C@@]2(C)Oc3c(C)c(O)c4c(O)c(c(/C=N/N5CCN(C)CC5)c(O)c4c3C2=O)NC(=O)/C(C)=C\C=C\[C@H](C)[C@H](O)[C@@H](C)[C@@H](O)[C@@H](C)[C@H](OC(C)=O)[C@@H]1C` [Rifampicin], the MIC (in the test on MT103 (wild type); in the test on SO2 strain; in test [1]) was below 0.004 µg/mL each time.
For the compound `[H]/N=C(/N)N[C@H]1[C@H](O)[C@@H](O)[C@H](O[C@@H]2O[C@@H](C)[C@](O)(C=O)[C@H]2O[C@@H]2O[C@@H](CO)[C@H](O)[C@@H](O)[C@@H]2NC)[C@@H](N/C(N)=N\[H])[C@@H]1O` [Streptomycin], the MIC (in the test with MT103 (wild type); in the test on SO2 strain; in test [1]) was below 0.5 µg/mL each time.
